According to ChEMBL document CHEMBL1629662, “Antimicrobial activity of prulifloxacin tested against a worldwide collection of gastroenteritis-producing pathogens, including those causing traveler's diarrhea” (2009):

Test system: Yersinia pseudotuberculosis
Assay: Antibacterial activity against Yersinia pseudotuberculosis assessed as percent resistant isolates by broth microdilution method
Format: functional

SMILES | Activity [%]
CC1(C)S[C@@H]2[C@H](NC(=O)[C@H](N)c3ccccc3)C(=O)N2[C@H]1C(=O)O [AMPICILLIN] | 91.3
O=C(O)c1cn(C2CC2)c2cc(N3CCNCC3)c(F)cc2c1=O [CIPROFLOXACIN] | 0
C[C@H]1c2cccc(O)c2C(=O)C2=C(O)[C@]3(O)C(=O)C(C(N)=O)=C(O)[C@@H](N(C)C)[C@@H]3[C@@H](O)[C@@H]21.O [DOXYCYCLINE] | 4.3
CCn1cc(C(=O)O)c(=O)c2ccc(C)nc21 [NALIDIXIC ACID] | 6.5
CC1Sc2c(C(=O)O)c(=O)c3cc(F)c(N4CCNCC4)cc3n21 (stereo not given) [ULIFLOXACIN] | 0
